In patent publication US5034391A, “Piperazinylalkyl-3(2H)-pyridazinones and the use thereof as agents lowering blood pressure” (CL Pharma Aktiengesellschaft, priority 1988, dated 1991):

Tests used:
[1] = Solubility of the isolated salt in water (remark in the preparation examples); assay type: physicochemical; details: hydrochloride / dihydrochloride salt
alpha1 adrenoceptors = biological target: T1, alpha1 adrenoceptors (Rattus norvegicus, UniProt P15823); test: Affinity for alpha1 adrenoceptors: displacement of tritiated prazosin on rat cardiac membranes; assay type: binding; details: Ki from IC50 by Cheng and Prusoff, read-out: Inhibition constants at alpha-1-adrenoceptor (Ki)
T1 construct: from tissue; host or cells: rat cardiac membranes
T1 sequence (P15823 1-515): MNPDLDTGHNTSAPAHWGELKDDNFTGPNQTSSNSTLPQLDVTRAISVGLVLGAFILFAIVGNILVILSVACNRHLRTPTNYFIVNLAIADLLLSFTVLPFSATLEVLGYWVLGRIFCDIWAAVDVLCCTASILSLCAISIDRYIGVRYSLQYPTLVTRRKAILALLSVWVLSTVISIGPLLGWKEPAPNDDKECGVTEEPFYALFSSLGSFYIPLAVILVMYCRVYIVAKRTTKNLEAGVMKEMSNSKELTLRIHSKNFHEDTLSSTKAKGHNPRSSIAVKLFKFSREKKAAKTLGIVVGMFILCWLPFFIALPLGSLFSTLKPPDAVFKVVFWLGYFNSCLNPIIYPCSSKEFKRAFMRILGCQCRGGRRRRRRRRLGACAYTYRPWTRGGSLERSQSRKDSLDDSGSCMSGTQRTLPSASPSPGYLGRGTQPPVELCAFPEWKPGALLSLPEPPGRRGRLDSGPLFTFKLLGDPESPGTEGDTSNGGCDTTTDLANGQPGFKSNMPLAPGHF
Description: The affinity of compounds of the general formula I for alpha1 adrenoceptors was established using the method described by R. S. Williams, D. F. Dukes and […] in J. Cardiovasc. Pharmacol. 3, 522-531 (1981). In this method the competitive displacement of tritiated prazosin (2-(4-(2-furoyl)-1-piperazinyl)-4-amino-6,7-dimethoxy-quinazoline) on rat-cardiac membranes by the test substances is measured, and the IC50 (50% inhibition concentration) is determined as that concentration which brings about a 50% inhibition of the specific binding of tritiated prazosin to the alpha1 adrenoceptors in rat cardiac membranes.
The concentration-independent inhibitor constants K1 -alpha1 were determined from the IC50 values as stated by Y. Cheng and H. W.Prusoff in Biochem. Pharmacol. 22, 3099-3108 (1973).

5-HT-1A receptors = biological target: T2, 5-HT-1A receptors (Rattus norvegicus, UniProt P19327); test: Affinity for 5-HT-1A receptors: displacement of tritiated 8-OH-DPAT on rat brain membranes; assay type: binding; details: Ki from IC50 by Cheng and Prusoff, read-out: Inhibition constants at 5-HT1A-receptor (Ki)
T2 construct: 5-HT-1A receptors in rat brain membranes; from tissue; host or cells: rat brain membranes
T2 sequence (P19327 1-422): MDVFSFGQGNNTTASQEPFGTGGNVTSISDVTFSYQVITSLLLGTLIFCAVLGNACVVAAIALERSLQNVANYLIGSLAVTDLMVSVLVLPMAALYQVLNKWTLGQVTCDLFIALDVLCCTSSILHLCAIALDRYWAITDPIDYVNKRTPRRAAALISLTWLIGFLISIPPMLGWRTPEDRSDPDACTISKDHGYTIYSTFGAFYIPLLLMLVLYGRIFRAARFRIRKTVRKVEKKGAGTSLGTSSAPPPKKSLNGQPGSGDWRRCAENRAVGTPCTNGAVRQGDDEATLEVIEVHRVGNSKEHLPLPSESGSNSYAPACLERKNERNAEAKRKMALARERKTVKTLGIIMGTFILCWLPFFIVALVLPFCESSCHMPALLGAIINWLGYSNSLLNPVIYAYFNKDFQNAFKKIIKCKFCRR
Description: The affinity of compounds of the general formula I for 5-HT-1A receptors was determined by the method described by H. Gozlan, S. Elmestikawy, L. Pichat, J. Glowinski and M. Hamon in Nature 305, 140-142 (1983). In this method the competitive displacement of tritiated 8-OH-DPAT (8-hydroxy-(di-n-propylamino)tetralin) on rat brain membranes by the test substances is measured, and the IC50 (50% inhibition concentration) is determined as that concentration which brings about a 50% inhibition of the specific binding of tritiated 8-OH-DPAT to 5-HT-1A receptors in rat brain membranes.
The concentration-independent inhibitor constants K1 -alpha1 and K1 -5HT-1A were determined from the IC50 values as stated by Y. Cheng and H. W. Prusoff in Biochem. Pharmacol. 22, 3099-3108 (1973).

Row | SMILES | solubility in water [1] | Ki (alpha1 adrenoceptors) [µM] | Ki (5-HT-1A receptors) [µM]
1 | CC(C)(C)n1ncc(NCCN2CCN(c3cccc(C(F)(F)F)c3)CC2)c(Cl)c1=O | readily soluble in water | – | –
2 | CC(C)(C)n1ncc(Cl)c(NCCN2CCN(c3cccc(C(F)(F)F)c3)CC2)c1=O | readily soluble in water | – | –
3 | Cn1ncc(NCCN2CCN(c3ccccc3F)CC2)c(Cl)c1=O [2-Methyl-4-chloro-5-((2-(4-(2-fluorophenyl)piperazinyl-1)ethyl)amino)-3(2H)-pyridazinone] | – | 0.0282 | 0.398
4 | Cn1ncc(Cl)c(NCCN2CCN(c3ccccc3)CC2)c1=O [2-Methyl-5-chloro-4-((2-(4-phenylpiperazinyl-1)ethyl)amino)-3(2H)-pyridazinone] | – | 0.0867 | 0.519
5 | COc1ccccc1N1CCN(CCNc2cn[nH]c(=O)c2Cl)CC1 [4-Chloro-5-((2-(4-(2-methoxyphenyl)-1-piperazinyl)ethyl)amino)-3(2H)-pyridazinone] | – | 0.00543 | 0.027
6 | Cn1ncc(NCCN2CCN(c3ccccc3)CC2)cc1=O [2-Methyl-5-((2-(4-phenylpiperazinyl-1)ethyl)amino)-3(2H)-pyridazinone] | – | 0.157 | 0.274
7 | COc1ccccc1N1CCN(CCNc2cnn(C)c(=O)c2Br)CC1 [2-methyl-4-bromo-5-((2-(4-(2-methoxyphenyl)-1-piperazinyl)ethyl)amino)-3(2H)-pyridazinone] | – | 0.00588 | 0.0336
8 | Cn1ncc(Cl)c(NCCN2CCN(c3cccc(C(F)(F)F)c3)CC2)c1=O [2-Methyl-5-chloro-4-((2-(4-(3-trifluoromethylphenyl)piperazinyl-1)ethyl)amino-3(2H)-pyridazinone] | – | 0.0473 | 0.00831
9 | COc1ccccc1N1CCN(CCCCCCNc2c(Cl)cnn(C)c2=O)CC1 [2-methyl-5-chloro-4-((6-(4-(2-methoxyphenyl)-1-piperazinyl)hexyl)amino)-3(2H)-pyridazinone] | soluble in water | – | –
10 | COc1ccccc1N1CCN(CCNc2cnn(C(C)(C)C)c(=O)c2)CC1 [2-t-Butyl-5-((2-(4-(2-methoxyphenyl)piperazinyl-1)ethyl)amino)-3(2H)-pyridazinone] | – | 0.00603 | 0.0658
11 | COc1ccccc1N1CCN(CCNc2c(Br)cnn(C)c2=O)CC1 [2-Methyl-5-bromo-4-((2-(4-(2-methoxyphenyl)-1-piperazinyl)ethyl)amino)-3(2H)-pyridazinone] | – | 0.00133 | 0.0162
12 | COc1ccccc1N1CCN(CCNc2c(Cl)cnn(CCO)c2=O)CC1 [2-Hydroxyethyl-5-chloro-4-((2-(4-(2-methoxyphenyl)piperazinyl-1)ethyl)amino)-3(2H)-pyridazinone] | – | 0.00242 | 0.0256
13 | COc1ccccc1N1CCN(CCCCCCNc2cnn(C)c(=O)c2Cl)CC1 [2-Methyl-4-chloro-5-((6-(4-(2-methoxyphenyl)-1-piperazinyl)hexyl)amino)-3(2H)-pyridazinone] | soluble in water | – | –
14 | COc1ccccc1N1CCN(CCNc2cnn(C)c(=O)c2)CC1 [2-Methyl-5-((2-(4-(2-methoxyphenyl)-1-piperazinyl)ethyl)amino)-3(2H)-pyridazinone] | – | 0.19 | 0.0436
15 | Cn1nccc(NCCN2CCN(c3ccccc3O)CC2)c1=O [2-Methyl-4-((2-(4-(2-hydroxyphenyl)piperazinyl-1)ethyl)amino)-3(2H)-pyridazinone] | – | 0.0655 | 0.0365
16 | COc1ccccc1N1CCN(CCCNc2cc(=O)n(C)c(=O)n2C)CC1 [URAPIDIL, reference compound] | – | 0.11 | 0.0931
17 | COc1ccc(C)cc1N1CCN(CCNc2cnn(C)c(=O)c2)CC1 [2-Methyl-5-((2-(4-(2-methoxy-5-methylphenyl)piperazinyl-1)ethyl)amino)-3(2H)-pyridazinone] | – | 0.0826 | 0.523
18 | Cn1nccc(NCCN2CCN(c3ccccc3)CC2)c1=O [2-Methyl-4-((2-(4-phenylpiperazinyl-1)ethyl)amino)-3(2H) pyridazinone] | – | 0.0903 | 0.261
19 | Cn1ncc(NCCN2CCN(c3cccc(C(F)(F)F)c3)CC2)c(Cl)c1=O [2-Methyl-4-chloro-5-((2-(4-(3-trifluoromethylphenyl)piperazinyl-1)ethyl)amino-3(2H)-pyridazinone] | – | 0.0942 | 0.0285
20 | Cc1cccc(C)c1N1CCN(CCNc2cnn(C)c(=O)c2Cl)CC1 [2-methyl-4-chloro-5-((2-(4-(2,6-dimethylphenyl)-1-piperazinyl)ethyl)amino)-3(2H)-pyridazinone] | readily soluble in water | – | –
21 | CCOc1ccccc1N1CCN(CCNc2cnn(C)c(=O)c2Cl)CC1 [2-Methyl-4-chloro-5-((2-(4-(2-ethoxyphenyl)piperazinyl-1)ethyl)amino)-3(2H)-pyridazinone] | – | 0.00759 | 0.0368
22 | COc1cc(C)ccc1N1CCN(CCNc2cnn(C)c(=O)c2Cl)CC1 [2-Methyl-4-chloro-5-((2-(4-(2-methoxy-4-methylphenyl)piperazinyl-1)ethyl)amino)-3(2H)-pyridazinone] | – | 0.0314 | 0.478
23 | COc1ccccc1N1CCN(CCNc2c(Cl)cnn(C(C)(C)C)c2=O)CC1 [2-t-Butyl-5-chloro-4-((2-(4-(2-methoxyphenyl)piperazinyl-1)ethyl)amino)-3(2H)-pyridazinone] | – | 0.0422 | 0.00945
24 | COc1ccccc1N1CCN(CCNc2cnn(CCO)c(=O)c2)CC1 [2-Hydroxyethyl-5-((2-(4-(2-methoxyphenyl)piperazinyl-1)ethyl)amino)-3(2H)-pyridazinone] | – | 0.128 | 0.0558
25 | Cc1cccc(C)c1N1CCN(CCNc2c(Cl)cnn(C)c2=O)CC1 [2-methyl-5-chloro-4-((2-(4-(2,6-dimethylphenyl)-1-piperazinyl)ethyl)amino)-3(2H)-pyridazinone] | readily soluble in water | – | –
26 | COc1ccccc1N1CCN(CCNc2cc(Cl)nn(C)c2=O)CC1 [2-Methyl-6-chloro-4-((2-(4-(2-methoxyphenyl)piperazinyl-1)ethyl)amino)-3(2H)-pyridazinone] | – | 0.00563 | 0.0284
27 | COc1ccccc1N1CCN(CCNc2cnn(C(C)(C)C)c(=O)c2Cl)CC1 [2-t-Butyl-4-chloro-5-((2-(4-(2-methoxyphenyl)piperazinyl-1)ethyl)amino)-3(2H)-pyridazinone] | – | 0.0128 | 0.0394
28 | COc1ccccc1N1CCN(CCNc2cnn(C)c(=O)c2Cl)CC1 [2-methyl-4-chloro-5-((2-(4-(2-methoxyphenyl)-1-piperazinyl)ethyl)amino)-3(2H)-pyridazinone] | – | 0.00757 | 0.0632
29 | COc1ccccc1N1CCN(CCNc2cnn(CCO)c(=O)c2Cl)CC1 [2-Hydroxyethl-4-chloro-5-((2-(4-(2-methoxyphenyl)piperazinyl-1-)ethyl)amino-3(2H)-pyridazinone] | – | 0.0108 | 0.0863
